Assays:
[1] = Compound was tested for the inhibitory activity against Sigma opioid receptor by using [3H](+)-3-PPP as radioligand in guinea pig brain
[2] = as above; remark: listed apart in the source

For `CCN(CCc1ccc(Cl)c(Cl)c1)[C@@H]1CCCC[C@@H]1N1CCCC1`, the Ki [1] was 3.5 nM.
For `CCN(CCc1ccc(Cl)c(Cl)c1)[C@H]1CCCC[C@H]1N1CCCC1`, the Ki [2] was 3.1 nM.
For `CN(Cc1ccc(Cl)c(Cl)c1)[C@H]1CCCC[C@H]1N1CCCC1`, the Ki [1] was 1.2 nM.
`CCCN(CCc1ccc(Cl)c(Cl)c1)[C@H]1CCCC[C@H]1N1CCCC1` gave a Ki [2] of 140 nM.
With `CCCN(CCc1ccc(Cl)c(Cl)c1)[C@@H]1CCCC[C@@H]1N1CCCC1` the Ki [2] was 56 nM.

— BindingDB's records for doi:10.1021/jm00114a015 (National Institute of Diabetes and Digestive and Kidney …, 1991)
